# Assay results as given in publication PMC7872314, “Modeling Bioavailable Concentrations in Zebrafish Cell Lines and Embryos Increases the Correlation of Toxicity Potencies across Test Systems” (Environmental Science & Technology, 2020).
# Like-named read-outs stand apart in the source and are kept apart here.
# Experiments:
# [1] = test system: ZF4 (fibroblasts) cell line; test: MTS assay (MTS/BCA multiplex), NAD(P)H metabolism; format: cell-based, zebrafish (Danio rerio); conditions: Danio rerio, Fibroblast
# [2] = test system: ZFL (hepatocytes) cell line; test: cells; format: cell-based, zebrafish (Danio rerio); conditions: Danio rerio, Hepatocyte
# [3] = test system: ZF4 (fibroblasts) cell line; test: BCA assay (MTS/BCA multiplex), protein amount; format: cell-based, zebrafish (Danio rerio); conditions: Danio rerio, Fibroblast
# [4] = test system: ZFL (hepatocytes) cell line; test: cells; format: cell-based, zebrafish (Danio rerio); conditions: Danio rerio, Hepatocyte; remark: listed apart in the source
# [5] = test system: ZF4 (fibroblasts) cell line; test: ATP assay (ATP/LDH multiplex), ATP metabolism; format: cell-based, zebrafish (Danio rerio); conditions: Danio rerio, Fibroblast
# [6] = test system: ZFL (hepatocytes) cell line; test: cells; format: cell-based, zebrafish (Danio rerio); conditions: Danio rerio, Hepatocyte; remark: listed apart in the source
# [7] = test system: ZF4 (fibroblasts) cell line; test: alamarBlue (AB) endpoint of AB/CFDA/NR multiplex, cellular respiration; format: cell-based, zebrafish (Danio rerio); conditions: Danio rerio, Fibroblast
# [8] = test system: ZFL (hepatocytes) cell line; test: cells; format: cell-based, zebrafish (Danio rerio); conditions: Danio rerio, Hepatocyte; remark: listed apart in the source
# [9] = test system: ZF4 (fibroblasts) cell line; test: CFDA endpoint of AB/CFDA/NR multiplex, membrane stability; format: cell-based, zebrafish (Danio rerio); conditions: Danio rerio, Fibroblast
# [10] = test system: ZFL (hepatocytes) cell line; test: cells; format: cell-based, zebrafish (Danio rerio); conditions: Danio rerio, Hepatocyte; remark: listed apart in the source
# [11] = test system: ZF4 (fibroblasts) cell line; test: Neutral red, absorbance (NRa), AB/CFDA/NR multiplex, lysosome stability; format: cell-based, zebrafish (Danio rerio); conditions: Danio rerio, Fibroblast
# [12] = test system: ZFL (hepatocytes) cell line; test: cells; format: cell-based, zebrafish (Danio rerio); conditions: Danio rerio, Hepatocyte; remark: listed apart in the source
# [13] = test system: ZF4 (fibroblasts) cell line; test: Neutral red, fluorescence (NRf), AB/CFDA/NR multiplex, lysosome stability; format: cell-based, zebrafish (Danio rerio); conditions: Danio rerio, Fibroblast
# [14] = test system: ZFL (hepatocytes) cell line; test: cells; format: cell-based, zebrafish (Danio rerio); conditions: Danio rerio, Hepatocyte; remark: listed apart in the source
# zebrafish embryos [15] = test: animal or person; format: in vivo, zebrafish (Danio rerio); conditions: for EC50: Danio rerio
# ZF4 and ZFL cell lines = test: Cytotoxicity assays, all endpoints, both cell lines (mean/range); format: cell-based, zebrafish (Danio rerio); conditions: 48 h
# [16] = test system: zebrafish cell lines vs zebrafish embryo; test: Potency ratios IC50;x/EC50;x (cytotoxicity assays vs mFET); design: species or system zebrafish (Danio rerio)
# zebrafish embryos [17] = test system: zebrafish embryos; design: method as in earlier work; conditions: nominal, cited from earlier work
# [18] = ref Comptox, PubChem or DrugBank; cited from earlier work
structure (smiles),measurement,setting,value
"CC1(C)C(C=C(Cl)c2ccc(Cl)cc2)C1C(=O)OC(C#N)c1ccc(F)c(Oc2ccccc2)c1 (centres unmarked) [Flumethrin, flumethrin]",IC50,"[1]; MTS - ZF4, log10 of IC50, read-out: LogIC50 (converted)",83.1 µM
same,IC50,"[1]; MTS - ZF4, read-out: IC50",83.1 µM
same,IC50,"[1]; ZF4, 48 h exposure, nominal, log10, read-out: logIC50 (log10 IC50;nom) MTS (converted)",83.2 µM
same,IC50,"[1]; ZF4, 48 h exposure, nominal, read-out: IC50;nom MTS",83.1 µM
same,IC50,"[2]; MTS - ZFL, log10 of IC50, read-out: LogIC50 (converted)",414 µM
same,IC50,"[2]; MTS - ZFL, read-out: IC50",414 µM
same,IC50,"[2]; ZFL, 48 h exposure, nominal, log10, read-out: logIC50 (log10 IC50;nom) MTS (converted)",417 µM
same,IC50,"[2]; ZFL, 48 h exposure, nominal, read-out: IC50;nom MTS",414 µM
same,IC50,"[3]; BCA - ZF4, log10 of IC50, read-out: LogIC50 (converted)",42.1 µM
same,IC50,"[3]; BCA - ZF4, read-out: IC50",42.1 µM
same,IC50,"[3]; ZF4, 48 h exposure, nominal, log10, read-out: logIC50 (log10 IC50;nom) BCA (converted)",41.7 µM
same,IC50,"[3]; ZF4, 48 h exposure, nominal, read-out: IC50;nom BCA",42.1 µM
same,IC50,"[4]; BCA - ZFL, log10 of IC50, read-out: LogIC50 (converted)",6130 µM
same,IC50,"[4]; BCA - ZFL, read-out: IC50",6130 µM
same,IC50,"[4]; ZFL, 48 h exposure, nominal, log10, read-out: logIC50 (log10 IC50;nom) BCA (converted)",6170 µM
same,IC50,"[4]; ZFL, 48 h exposure, nominal, read-out: IC50;nom BCA",6130 µM
same,IC50,"[5]; ATP - ZF4, log10 of IC50, read-out: LogIC50 (converted)",317 µM
same,IC50,"[5]; ATP - ZF4, read-out: IC50",317 µM
same,IC50,"[5]; ZF4, 48 h exposure, nominal, log10, read-out: logIC50 (log10 IC50;nom) ATP (converted)",316 µM
same,IC50,"[5]; ZF4, 48 h exposure, nominal, read-out: IC50;nom ATP",317 µM
same,IC50,"[6]; ATP - ZFL, log10 of IC50, read-out: LogIC50 (converted)",441 µM
same,IC50,"[6]; ATP - ZFL, read-out: IC50",441 µM
same,IC50,"[6]; ZFL, 48 h exposure, nominal, log10, read-out: logIC50 (log10 IC50;nom) ATP (converted)",437 µM
same,IC50,"[6]; ZFL, 48 h exposure, nominal, read-out: IC50;nom ATP",441 µM
same,IC50,"[7]; AB - ZF4, log10 of IC50, read-out: LogIC50 (converted)",351 µM
same,IC50,"[7]; AB - ZF4, read-out: IC50",351 µM
same,IC50,"[7]; ZF4, 48 h exposure, nominal, log10, read-out: logIC50 (log10 IC50;nom) AB (converted)",347 µM
same,IC50,"[7]; ZF4, 48 h exposure, nominal, read-out: IC50;nom AB",351 µM
same,IC50,"[8]; AB - ZFL, log10 of IC50, read-out: LogIC50 (converted)",244 µM
same,IC50,"[8]; AB - ZFL, read-out: IC50",244 µM
same,IC50,"[8]; ZFL, 48 h exposure, nominal, log10, read-out: logIC50 (log10 IC50;nom) AB (converted)",245 µM
same,IC50,"[8]; ZFL, 48 h exposure, nominal, read-out: IC50;nom AB",244 µM
same,IC50,"[9]; CFDA - ZF4, log10 of IC50, read-out: LogIC50 (converted)",170 µM
same,IC50,"[9]; CFDA - ZF4, read-out: IC50",170 µM
same,IC50,"[9]; ZF4, 48 h exposure, nominal, log10, read-out: logIC50 (log10 IC50;nom) CFDA (converted)",170 µM
same,IC50,"[9]; ZF4, 48 h exposure, nominal, read-out: IC50;nom CFDA",170 µM
same,IC50,"[10]; CFDA - ZFL, log10 of IC50, read-out: LogIC50 (converted)",118 µM
same,IC50,"[10]; CFDA - ZFL, read-out: IC50",118 µM
same,IC50,"[10]; ZFL, 48 h exposure, nominal, log10, read-out: logIC50 (log10 IC50;nom) CFDA (converted)",117 µM
same,IC50,"[10]; ZFL, 48 h exposure, nominal, read-out: IC50;nom CFDA",118 µM
same,IC50,"[11]; NR-abs - ZF4, log10 of IC50, read-out: LogIC50 (converted)",104 µM
same,IC50,"[11]; NR-abs - ZF4, read-out: IC50",104 µM
same,IC50,"[11]; ZF4, 48 h exposure, nominal, log10, read-out: logIC50 (log10 IC50;nom) NRa (converted)",105 µM
same,IC50,"[11]; ZF4, 48 h exposure, nominal, read-out: IC50;nom NRa",104 µM
same,IC50,"[11]; ZF4 cell line, NRa endpoint, nominal, read-out: IC50;nom",53.1 µg/mL
same,IC50,"[12]; NR-abs - ZFL, log10 of IC50, read-out: LogIC50 (converted)",160 µM
same,IC50,"[12]; NR-abs - ZFL, read-out: IC50",160 µM
same,IC50,"[12]; ZFL, 48 h exposure, nominal, log10, read-out: logIC50 (log10 IC50;nom) NRa (converted)",158 µM
same,IC50,"[12]; ZFL, 48 h exposure, nominal, read-out: IC50;nom NRa",160 µM
same,IC50,"[13]; NR-fluo - ZF4, log10 of IC50, read-out: LogIC50 (converted)",213 µM
same,IC50,"[13]; NR-fluo - ZF4, read-out: IC50",213 µM
same,IC50,"[13]; ZF4, 48 h exposure, nominal, log10, read-out: logIC50 (log10 IC50;nom) NRf (converted)",214 µM
same,IC50,"[13]; ZF4, 48 h exposure, nominal, read-out: IC50;nom NRf",213 µM
same,IC50,"[14]; NR-fluo - ZFL, log10 of IC50, read-out: LogIC50 (converted)",159 µM
same,IC50,"[14]; NR-fluo - ZFL, read-out: IC50",159 µM
same,IC50,"[14]; ZFL, 48 h exposure, nominal, log10, read-out: logIC50 (log10 IC50;nom) NRf (converted)",158 µM
same,IC50,"[14]; ZFL, 48 h exposure, nominal, read-out: IC50;nom NRf",159 µM
same,difference in toxicity (EC50;nom) between 48 hpf and 144 hpf,zebrafish embryos [15]; 48 hpf time point less sensitive than 144 hpf,approximately the same
same,log EC50;nom (mFET),"zebrafish embryos [15]; 48 hpf, nominal, log10, listed as Flu",-6.562 M
same,EC50,"zebrafish embryos [15]; 48 hpf, nominal, log10, read-out: log EC50;nom (mFET) (converted)",0.275 µM
same,EC50,"zebrafish embryos [15]; 48 hpf, nominal, read-out: EC50;nom (embryo)",0.14 µg/mL
same,EC50,zebrafish embryos [15]; read-out: EC50 48hpf,0.274 µM
same,EC50,zebrafish embryos [15]; read-out: EC50;nom (mFET),0.274 µM
same,IC50,"ZF4 and ZFL cell lines; Danio rerio, read-out: Mean log IC50nom, mean of all cytotoxicity endpoints (without LDH) in ZF4 and ZFL, 48 h, log10 (converted)",229 µM
same,Mean log IC50nom,"ZF4 and ZFL cell lines; mean of all cytotoxicity endpoints (without LDH) in ZF4 and ZFL, log10, listed as Flu",-3.637 M
same,in vitro toxicity (IC50;free) higher than EC50;nom,[16]; ZF4 NRa endpoint vs embryo,10 fold
same,potency ratio IC50;nom/EC50;nom (median),"[16]; median over cytotoxicity endpoints, nominal, 48 h cells / 48 hpf mFET",698
same,difference in sensitivity between embryo (EC50;nom) and cells (IC50;nom),"[16]; nominal concentrations, higher potency in the mFET",two to three log-scales more sensitive in the mFET
same,"potency ratio IC50;nom/EC50;nom, BCA-ZFL endpoint","[16]; single endpoint BCA-ZFL, less sensitive in the cell-based assay","10,000 fold"
same,EC50,"zebrafish embryos [17]; 144 hpf, converted",0.216 µM
same,logEC50 144 hpf,zebrafish embryos [17]; log10,-6.667 M
same,Physiological charge,[18],0
same,logKoa,[18],11.7
same,logKow,[18],6.97
